# Reference: PubChem BioAssay AID2060882 (Molecular Pharmacology Branch, DTP, NCI, 2025)
# Test system: 898857-211-R-J1-PDC complex spheroids, growth % test/control
# Assay: Anticancer human tumor 898857-211-R-J1-PDC patient-derived melanoma cell line growth inhibition [RAS]
# Conditions: for IC50: curve of first compound; for viability, T/C: stronger effect = lower value
# Procedure, shortened: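 Multi-cell-type spheroids: tumor cells plus HUVEC endothelial cells and mesenchymal stem cells. RAS-pathway inhibitors were combined with targeted agents, each dosed in half-log steps down from clinical Cmax, or from 10 microM when Cmax was unknown.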
# 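Note: spheroids exposed to compound for seven days before readout.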
# 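Throughout, for viability, T/C: 100% = DMSO vehicle control wells.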
structure (smiles),measurement,setting,value
CC(Nc1ccc2c(c1)OCCn1cc(N3C(=O)OCC3C(F)F)nc1-2)C(N)=O (centres undefined) + CCn1c(-c2cccnc2C(C)OC)c2c3cc(ccc31)N1CCOC(CC(NC(=O)C(C(C)C)N(C)C(=O)C3(F)CCN(C(=O)C#CC(C)(C)N(C)C)CC3)C(=O)N3CCCC(N3)C(=O)OCC(C)(C)C2)C1,IC50,second compound 0.000949 µM,> 10 µM
same,IC50,second compound 0.003 µM,> 10 µM
same,IC50,second compound 0.00949 µM,> 10 µM
same,IC50,second compound 0.03 µM,> 10 µM
same,IC50,second compound 0.0949 µM,> 10 µM
same,IC50,second compound 0.3 µM,5.64 µM
same,"viability, T/C","second compound 0.000949 µM, first compound 0.0316 µM",110%
same,"viability, T/C","second compound 0.000949 µM, first compound 0.1 µM",87%
same,"viability, T/C","second compound 0.000949 µM, first compound 0.316 µM",89.4%
same,"viability, T/C","second compound 0.000949 µM, first compound 1 µM",92.7%
same,"viability, T/C","second compound 0.000949 µM, first compound 3.16 µM",89.3%
same,"viability, T/C","second compound 0.000949 µM, first compound 10 µM",65.8%
same,"viability, T/C","second compound 0.003 µM, first compound 0.0316 µM",105%
same,"viability, T/C","second compound 0.003 µM, first compound 0.1 µM",103%
same,"viability, T/C","second compound 0.003 µM, first compound 0.316 µM",97.4%
same,"viability, T/C","second compound 0.003 µM, first compound 1 µM",104%
same,"viability, T/C","second compound 0.003 µM, first compound 3.16 µM",96.7%
same,"viability, T/C","second compound 0.003 µM, first compound 10 µM",63.2%
same,"viability, T/C","second compound 0.00949 µM, first compound 0.0316 µM",94.9%
same,"viability, T/C","second compound 0.00949 µM, first compound 0.1 µM",104%
same,"viability, T/C","second compound 0.00949 µM, first compound 0.316 µM",92.8%
same,"viability, T/C","second compound 0.00949 µM, first compound 1 µM",103%
same,"viability, T/C","second compound 0.00949 µM, first compound 3.16 µM",78.7%
same,"viability, T/C","second compound 0.00949 µM, first compound 10 µM",66.4%
same,"viability, T/C","second compound 0.03 µM, first compound 0.0316 µM",89.8%
same,"viability, T/C","second compound 0.03 µM, first compound 0.1 µM",98.3%
same,"viability, T/C","second compound 0.03 µM, first compound 0.316 µM",98.2%
same,"viability, T/C","second compound 0.03 µM, first compound 1 µM",95.4%
same,"viability, T/C","second compound 0.03 µM, first compound 3.16 µM",75.8%
same,"viability, T/C","second compound 0.03 µM, first compound 10 µM",58.8%
same,"viability, T/C","second compound 0.0949 µM, first compound 0.0316 µM",103%
same,"viability, T/C","second compound 0.0949 µM, first compound 0.1 µM",98.7%
same,"viability, T/C","second compound 0.0949 µM, first compound 0.316 µM",91%
same,"viability, T/C","second compound 0.0949 µM, first compound 1 µM",83.8%
same,"viability, T/C","second compound 0.0949 µM, first compound 3.16 µM",63.1%
same,"viability, T/C","second compound 0.0949 µM, first compound 10 µM",53%
same,"viability, T/C","second compound 0.3 µM, first compound 0.0316 µM",73.9%
same,"viability, T/C","second compound 0.3 µM, first compound 0.1 µM",74.7%
same,"viability, T/C","second compound 0.3 µM, first compound 0.316 µM",68%
same,"viability, T/C","second compound 0.3 µM, first compound 1 µM",69.5%
same,"viability, T/C","second compound 0.3 µM, first compound 3.16 µM",57.6%
same,"viability, T/C","second compound 0.3 µM, first compound 10 µM",41.8%
CCC(CC)c1cc(NC2CCC(N)C2)n2nccc2n1 (centres undefined) + C#Cc1c(F)ccc2cc(O)cc(-c3ncc4c(N5CC6CCC(C5)N6)nc(OCC56CCCN5CC(F)C6)nc4c3F)c12,IC50,second compound 0.0316 µM,1.07 µM
same,IC50,second compound 0.1 µM,1.21 µM
same,IC50,second compound 0.316 µM,1.24 µM
same,IC50,second compound 1 µM,1.26 µM
same,IC50,second compound 3.16 µM,1.09 µM
same,IC50,second compound 10 µM,0.032 µM
same,"viability, T/C","second compound 0.0316 µM, first compound 0.0316 µM",113%
same,"viability, T/C","second compound 0.0316 µM, first compound 0.1 µM",105%
same,"viability, T/C","second compound 0.0316 µM, first compound 0.316 µM",97.6%
same,"viability, T/C","second compound 0.0316 µM, first compound 1 µM",54.5%
same,"viability, T/C","second compound 0.0316 µM, first compound 3.16 µM",1.81%
same,"viability, T/C","second compound 0.0316 µM, first compound 10 µM",0.32%
same,"viability, T/C","second compound 0.1 µM, first compound 0.0316 µM",119%
same,"viability, T/C","second compound 0.1 µM, first compound 0.1 µM",98.3%
same,"viability, T/C","second compound 0.1 µM, first compound 0.316 µM",101%
same,"viability, T/C","second compound 0.1 µM, first compound 1 µM",60%
same,"viability, T/C","second compound 0.1 µM, first compound 3.16 µM",2.14%
same,"viability, T/C","second compound 0.1 µM, first compound 10 µM",0.33%
same,"viability, T/C","second compound 0.316 µM, first compound 0.0316 µM",99.7%
same,"viability, T/C","second compound 0.316 µM, first compound 0.1 µM",107%
same,"viability, T/C","second compound 0.316 µM, first compound 0.316 µM",93.4%
same,"viability, T/C","second compound 0.316 µM, first compound 1 µM",61.6%
same,"viability, T/C","second compound 0.316 µM, first compound 3.16 µM",1.82%
same,"viability, T/C","second compound 0.316 µM, first compound 10 µM",0.52%
same,"viability, T/C","second compound 1 µM, first compound 0.0316 µM",103%
same,"viability, T/C","second compound 1 µM, first compound 0.1 µM",121%
same,"viability, T/C","second compound 1 µM, first compound 0.316 µM",105%
same,"viability, T/C","second compound 1 µM, first compound 1 µM",61.9%
same,"viability, T/C","second compound 1 µM, first compound 3.16 µM",2.03%
same,"viability, T/C","second compound 1 µM, first compound 10 µM",0.38%
same,"viability, T/C","second compound 3.16 µM, first compound 0.0316 µM",105%
same,"viability, T/C","second compound 3.16 µM, first compound 0.1 µM",97.1%
same,"viability, T/C","second compound 3.16 µM, first compound 0.316 µM",92.5%
same,"viability, T/C","second compound 3.16 µM, first compound 1 µM",55%
same,"viability, T/C","second compound 3.16 µM, first compound 3.16 µM",1.64%
same,"viability, T/C","second compound 3.16 µM, first compound 10 µM",0.34%
same,"viability, T/C","second compound 10 µM, first compound 0.0316 µM",52.9%
same,"viability, T/C","second compound 10 µM, first compound 0.1 µM",32.4%
same,"viability, T/C","second compound 10 µM, first compound 0.316 µM",30%
same,"viability, T/C","second compound 10 µM, first compound 1 µM",25.2%
same,"viability, T/C","second compound 10 µM, first compound 3.16 µM",0.4%
same,"viability, T/C","second compound 10 µM, first compound 10 µM",0.18%
